Measurements from ChEMBL document CHEMBL1157402, “Solid-phase total synthesis of cyclic decapeptide phakellistatin 12” (2008).
Values after ≈ are worked out from the molar mass of the structure shown. Peptide text beside a SMILES is read from it.

test system: P388; assay: Anticancer activity against mouse P388 cells; assay type: functional; conditions: read-out: ED50 (the source's name)

| EC50 | Compound |
| --- | --- |
| 0.2 µg/mL (≈ 0.205 µM) | CC[C@H](C)[C@@H]1NC(=O)[C@H](Cc2ccccc2)NC(=O)[C@@H]2CCCN2C(=O)[C@H](Cc2ccccc2)NC(=O)[C@@H]2CCCN2C(=O)[C@H](CCC(N)=O)NC(=O)[C@@H]2CCCN2C(=O)[C@H](Cc2ccccc2)NC1=O [PHAKELLI STATIN 11] (cyclo(FIFPQPFP)) |
| 0.34 µg/mL (≈ 0.411 µM) | CC[C@H](C)[C@@H]1NC(=O)[C@@H]2CCCN2C(=O)[C@H](Cc2ccccc2)NC(=O)[C@@H]2CCCN2C(=O)[C@H](Cc2ccc(O)cc2)NC(=O)[C@@H]2CCCN2C(=O)[C@H]([C@@H](C)CC)NC1=O [PHAKELLISTATIN 2] (cyclo(FPIIPYP)) |
| 0.23 µg/mL (≈ 0.309 µM) | CC[C@H](C)[C@@H]1NC(=O)[C@H](C)NC(=O)[C@H](CCSC)NC(=O)[C@H](C)NC(=O)[C@H](CC(N)=O)NC(=O)[C@H](Cc2ccccc2)NC(=O)[C@@H]2CCCN2C1=O [PHAKELLI STATIN 5] (cyclo(AIPFNAM)) |
| 2.8 µg/mL (≈ 2.46 µM) | CC[C@H](C)[C@@H]1NC(=O)[C@@H]2CCCN2C(=O)[C@@H]2CCCN2C(=O)[C@H]([C@@H](C)CC)NC(=O)[C@H](Cc2ccc(O)cc2)NC(=O)[C@@H]2CCCN2C(=O)[C@@H]2CCCN2C(=O)[C@H](CC(C)C)NC(=O)[C@H]([C@@H](C)O)NC(=O)[C@H](Cc2ccccc2)NC1=O [PHAKELLISTATIN 12] (cyclo(FTLPPYIPPI)) |
